# Reference: patent US20260275307A1, “PRIME EDITING SYSTEM BASED ON PERV REVERSE TRANSCRIPTASE” (Jiangxi Agricultural University, priority 2023, published 2026)
# What was measured:
# [1] = system: fluorescent reporter PFF cell line; test: Small molecules: effect on PE editing efficiency in fluorescent reporter PFF cell line; assay type: cell-based, pig; conditions: 20 μM RS-1, 200 ng/mL Nocodazole, FIG. 18A; for PE efficiency: single molecule added to medium after transfection: 40 μM L755507, 0.1 μM Brefeldin A, 10 nM TSA; for increase of editing efficiency: single molecule: 10 nM TSA
# Procedure: From this, it can be expected that some small molecules may also improve the editing efficiency of PE. […] Cells were treated by adding the corresponding concentrations of small molecules or combinations of small molecules, respectively, to the medium after transfection.
# [2] = system: primary PFFs; test: Small molecules: effect on PE editing efficiency in primary PFFs; assay type: cell-based, pig; conditions: primary PFF; FIG. 18C
# Procedure: Cells were treated by adding the corresponding concentrations of small molecules or combinations of small molecules, respectively, to the medium after transfection.
# The effect of Rs-1, Nocodazole, TSA, and the combination of Rs-1+TSA and Rs-1+Nocodazole in primary PFFs was then verified.
# [3] = system: 293T cells co-transfected with fluorescent reporter gene vector; test: 293T cell fluorescence reporter gene co-transfection experiment; assay type: cell-based; conditions: Bmx-PERV-RT with 6 mutation sites and combinations; 3 editing forms; FIG. 12
# Procedure: 1×10^5 cells were inoculated into a 24-well culture dish 17-24 hours before cell transfection, and when the cell confluence reached 50-80%, transfection was performed using H4000 reagent (Ingran, China), and each transfection reaction included 200 ng PE editor, 100 ng pegRNA, 100 ng ngRNA, 10 ng fluorescent reporter gene vector and 0.5 μL H4000 reagent. The cells were collected 48 hours after transfection, and detected by flow cytometry (BD, USA), with wild-type fluorescence reporter cells as background, and GFP positive cells were circled with FITC+PE double channel, with GFP ratio as editing efficiency.
# [4] = system: primary PFF cells; test: Editing efficiency of PE editors in primary PFF cells (high throughput sequencing of target sites); assay type: cell-based, pig
# Procedure: The sows for 31 days gestation were sacrificed and dissected, the whole uterus was taken out, the fetus and the fetal membrane were taken out one by one, and transferred into a DMEM solution containing 5% (v/v) penicillin and streptomycin (v/v; Gibco: 15140-122) for storage in a refrigerator at 4° C. In a clean bench, the isolated fetus was transferred one by one to a sterile 10 cm culture dish, and the head, viscera, limbs and tail of the fetus were removed with sterile forceps and scissors; the remaining part of the fetus was cleaned with a PBS solution containing 5% (v/v) penicillin and streptomycin (Gibco: 15140-122)), and then the remaining part of the fetus was cut to about 1 mm^3 within 10-15 minutes, and 5 ml of collagenase working solution was added to the cut tissue; the tip of 1 ml of sterile pipettor was cut off with scissors, and the cut tissue pieces were transferred to a 15 ml sterile centrifuge tube, sealed and placed in a shaker at 37° C. for incubation for 2 hours. After that, the centrifuge tube was centrifuged at 1000 rpm for 5 minutes, the upper collagenase working solution was removed, and the incubated tissues were evenly transferred into two T75 culture dishes and cultured in a 37° C., 5% CO2 sterile incubator. […]
# [5] = system: sheep fetal fibroblasts (SFF); test: Editing efficiency of PE editors in sheep fetal fibroblasts; assay type: cell-based; conditions: pPE editors with 4 point mutations; FIG. 9
# Procedure: (§1) Canine fetal fibroblasts (DFF) were isolated from a female canine fetus on 30 days of gestation, and the specific establishment method was the same as that of PFF; goat fetal fibroblasts (SFF) were given by Yunnan Agriculture University Weijiang Laboratory, and the cells were isolated from a small tailed han sheep fetus; 293T cells were purchased from the Cell Bank of the Type Culture Collection Committee of Chinese Academy. All three cells were cultured in high-glucose DMEM (Gibco, USA) culture medium containing 12% (v/v) fetal bovine serum (Excell, China) and 1% (v/v) penicillin-streptomycin (BI, China) at 37° C. in a 5% CO2 incubator.
# (§2) DFF and SFF: The method is similar to the transfection method of PFF, and the difference lies in that when DFF and SFF were transformed, the cells were shocked by using the EN-150 program, then again by using the CA-113 program.
# (§3) SFF and DFF cells: 3 μg/mL puromycin (Sigma, Japan) was added 48 hours after electrotransformation for screening for 2 days, and then the culture medium was changed for further culture for 2 days.
# (§4) The method is same with the detection of editing efficiency of PFF.
# [6] = system: HEK293T cells; test: Editing efficiency of PE editors in 293T cells (puromycin screening, sequencing); assay type: cell-based; conditions: pPE editors with 4 point mutations, FIG. 9
# Procedure: as §1
# 293T cells: cells were inoculated into a 24-well culture dish 1-2 days before cell transfection, and when the cell confluency reached 50-60%, the cells were transfected with Lipofectamine 3000 reagent (Invitrogen, USA), and each transfection reaction included 1 μg PE editor, 0.5 μg pegRNA, 0.5 μg ngRNA and 1 μL Lipofectamine 3000 reagent.
# 293T cells: after transfection, 3 μg/mL puromycin (Sigma, Japan) was added for screening for 3 days, and then the culture medium was changed and cultured for another 2 days.
# as §4
# [7] = system: dog fetal fibroblasts (DFF); test: Editing efficiency of PE editors in dog fetal fibroblasts; assay type: cell-based; conditions: pPE editors with 4 point mutations; canine fetal fibroblasts; FIG. 9
# Procedure: as §1, §2, §3, §4
# [8] = system: immortalized BFP fluorescence reporter PFF cell line; test: Editing efficiency of PE editors in immortalized BFP fluorescence reporter PFF cell line (flow cytometry, GFP ratio); assay type: cell-based, Bama pig; conditions: epPE editors vs PE2c-Puro and each other, FIG. 3
# Procedure: The immortalized BFP fluorescence reporter PFF cell line was cultured in high glucose DMEM (Gibco, USA) medium containing 12% fetal bovine serum ((v/v), Excell, China) and 1% penicillin ((v/v), BI, China). The cell line was constructed by the laboratory, firstly, the SV40 large T antigen was site-directed knocked into the H11 safe harbor site of the primary PFFs of Bama pig, and then the BFP vector was site-directed integrated into the Rosa26 safe harbor site of immortalized PFF by the CRISPR Cas9 technology, and finally the BFP fluorescence reporter PFF cell line was obtained by serial passage. […]
# After the cells were digested with 0.125% trypsin (Gibco, USA), the cells were collected into a 1.5 mL EP tube, centrifuged at 200×g for 5 minutes, the supernatant was discarded, 50 μL of 1×PBS buffer was added to resuspend the cells, and the cells were detected by using a flow cytometer (BD, USA), the wild-type fluorescence reporter cells were used as the background, and GFP-positive cells were circled by using two channels of FITC+PE, and the GFP ratio was the editing efficiency.
Compound,PE efficiency [1],improvement of overall editing efficiency for the 6 sites [2] [%],increase of editing efficiency [1] [%],also measured
"C[C@H]1CCC/C=C/[C@@H]2C[C@H](O)C[C@H]2[C@H](O)/C=C/C(=O)O1 [BrefeldinA, Brefeldin A]",significantly (P<0.05 or P<0.01) improved PE efficiency,–,–,–
CCCCCCNC(=O)Nc1ccc(S(=O)(=O)Nc2ccc(CCNC[C@H](O)COc3ccc(O)cc3)cc2)cc1 [L755507],significantly (P<0.05 or P<0.01) improved PE efficiency,–,–,–
COC(=O)Nc1nc2ccc(C(=O)c3cccs3)cc2[nH]1 [Nocodazole],significantly (P<0.05 or P<0.01) improved PE efficiency,36.4,66.9,–
O=C(Nc1ccc(Br)cc1)c1ccc(Br)c(S(=O)(=O)NCc2ccccc2)c1 [Rs-1],significantly (P<0.05 or P<0.01) improved PE efficiency,20.8,32.7,–
"CC(/C=C/C(=O)NO)=C\[C@@H](C)C(=O)c1ccc(N(C)C)cc1 [TSA, Trichostatin A]",significantly (P<0.05 or P<0.01) improved PE efficiency,14.3,34.4,–
"M5.1: pPE editor, PERV-RT variant carrying 5 amino acid mutations (D199N, T305K, W312F, L602W, V222A); SEQ ID NO: 45",–,–,–,efficiency (GFP ratio) [3]: overall optimal efficiency in 3 editing forms
"bmx-pPE-C-M4-puro: pPE editor, Bama pig type C PERV-RT with D199N, T305K, W312F, L602W; SEQ ID NO: 31",–,–,–,"editing efficiency ([4]; pPE editors with 4 point mutations in PFF, FIG. 8): overall higher efficiency; editing efficiency [5]: higher efficiency at most sites; editing efficiency [6]: higher efficiency at most sites; editing efficiency [7]: higher efficiency at most sites"
"epPE-AC-M3Δ-Puro: PE editor: nCas9 fused to PERV-AC-NC and PERV-AC-RT (ΔRNase H) with D199N, T305K, W312F; SEQ ID NO: 22",–,–,–,"average editing efficiency ([4]; 6 editing sites tested in the primary PFF, FIG. 4): higher than that of epPE-B-M3Δ-Puro; editing efficiency (GFP ratio) [8]: higher than that of epPE-B-M3Δ-Puro"
epPE-AC-M4Δ*-Puro: epPE-AC-M3Δ-Puro with RT amino acids 329-332 mutated from EKGE to PGTL; SEQ ID NO: 23,–,–,–,editing efficiency (GFP ratio) [8]: higher than that of epPE-B-M4Δ*-Puro
